According to patent US20140323575A1, “TYROSINE ISOMERS AS THERAPEUTIC AGENTS” (CONSEJO NACIONAL DE INVESTIGACIONES CIENTIFICAS Y TECNICAS …, priority 2011, published 2014):

What was measured:
[1] = test system: inhibitory activity present in serum from LB tumor-bearing mice; assay: Titer of growth-inhibitory activity in serum from drug-treated LB tumor-bearing mice; type: in vivo; settings: for effect on serum inhibitory activity of LB tumor-bearing mice: treatment of LB tumor-bearing mice
LB tumor cells [2] = assay: Rescue of in vitro LB tumor inhibition mediated by m- or o-tyrosine by co-culturing with amino acids; type: cell-based, mice; settings: co-culture with m- or o-tyrosine
Experimental: (§1) Each point (percentage of cpm incorporated by LB cells as compared with the control) represents the mean±SE of 3 experiments. Significance versus control, meta-tyrosine and peak 2: P<0.001 at >2.75 μg/mL; peak 2: P<0.05 at 2.75 μg/mL. ortho-tyrosine P<0.001 at 500 to 125 μg/mL; P<0.002 at 30 μg/mL. Peak 3: P<0.002 and P<0.01, at 31 and 15.5 μg/mL, respectively. Rescue of in vitro LB tumor inhibition mediated by meta-tyrosine (150 μg/mL)(B) or ortho-tyrosine (150 μg/mL) (C) by co-culturing with 150 μg/mL of individual protein amino acids. Each value represents the mean±SE of 8 to 18 determinations for (B) and 4 to 9 determinations for (C). a, P<0.01; c, P<0.001 versus meta- or ortho-tyrosine. Data with saline was similar to data obtained with each amino acid alone.

LB tumor = assay: In vivo growth of s.c. LB tumor implants (primary, secondary under CR, established, ascitic); design: species or system mice
Experimental: Twenty mice received an s.c. implant of 1×10^6 LB cells in the right flank, and, 7 days later, an s.c. secondary implant of 1×10^5 LB tumor cells in the left flank. […] The remaining 10 mice received 0.2 mL of phenylalanine (500 μg/mL) at the site of the secondary implant, daily, for 8 days, starting 1 hour after the secondary inoculum [CR+Phe (-□-)]. Controls were 10 mice receiving 1×10^5 LB tumor cells in the left flank only [control (-Δ-)]. A fourth group received the tumor inoculum in the left flank but also meta-tyrosine at the site of tumor implant (0.2 mL of 500 μg/mL, n=10) or by the intraperitoneal route (0.5 mL of 1,000 μg/mL, n=6), daily, for 8 days, starting 1 hour after tumor inoculum [control+m-Tyr: (-▴-)]. A fifth group received the tumor inoculum in the left flank and also meta-tyrosine (0.2 mL of 500 μg/mL, n=5) at the site of tumor growth, daily for 5 days, starting (see arrow) when LB was an established tumor measuring 60 to 70 mm^3 [est. LB+m-Tyr: (-X-)]. Abscissa, days after tumor implant in the left flank. Ordinate, volume of the tumors implanted in the left flank. CR and control+m-Tyr versus control: P<0.001 at day 9 and P<0.002 at days 5 and 7; CR and control+m-Tyr versus CR+Phe: P<0.001 at days 5, 7 and […]; est. LB+m-Tyr versus control and CR+Phe: P<0.002 at day 9. Control+tyrosine or saline, control; CR+tyrosine or saline, CR. FIG. 6B is a microscopic view showing many tumor cells expressing Ki-67 protein in both CR+phenylalanine (B1) and control (B2) groups and few tumor cells expressing Ki-67 in both CR (B3) and control+meta-tyrosine (B4) groups (H×400). FIG. 6C illustrates a representative experiment showing the frequency distribution histogram of viable LB cells from a control tumor (C1), from a secondary tumor inhibited by CR (C2), and from a tumor inhibited by periodic intraumoral injection of meta-tyrosine (C3). Samples of tumor cells were collected 9 days after the s.c. inoculation of 1×10^5 LB tumor cells.

MC-C tumor = assay: In vivo growth of s.c. MC-C fibrosarcoma implants; design: species or system mice; settings: secondary MC-C implant in primary tumor-bearing mice, 0.2 ml of 500 μg/ml daily for 19 days at the site
Experimental: Twelve mice received a s.c. implant of 5×10^6 MC-C tumor cells in the right flank and 25 days later they received a secondary implant of 2×10^6 MC-C tumor cells in the left flank. […] The remaining 6 mice received 0.2 ml of phenylalanine (500 μg/ml) at the site of the secondary implant, daily, for 19 days, starting 1 hour later than the secondary implant. These secondary implants grew as in 6 controls only receiving the implant in the left flank (tumor volumes of secondary tumor+phenylalanine and of controls, 20 days after the implant in the left flank were =680±152 mm^3 and 524±88 mm^3, respectively). […] Significance: Secondary tumor vs. control: p<0.01; vs. secondary tumor+phenylalanine: p<0.02. Control+m-tyrosine vs. control and vs. secondary tumor+phenylalanine: p<0.02.

CEI tumor = assay: In vivo growth of s.c. CEI epidermoid carcinoma implants; design: species or system mice; settings: secondary CEI implant in primary tumor-bearing mice, 0.2 ml of 500 μg/ml daily for 19 days at the site
Experimental: Twelve mice received a s.c. implant of 1×10^6 CEI tumor cells in the right flank and 28 days later they received a secondary implant of 3×10^5 CEI tumor cells in the left flank. […] The remaining 6 mice received 0.2 ml of phenylalanine (500 μg/ml) at the site of the secondary implant, daily, for 19 days, starting 1 hour later than the secondary implant. These secondary implants grew as in 6 controls only receiving the implant in the left flank (tumor volumes of secondary tumor+phenylalanine and of controls, 20 days after the implant in the left flank were 358±38 mm^3 and 373±93 mm^3, respectively). […] Significance: Secondary tumor and control+m-tyrosine vs. control: p<0.01; vs. secondary tumor+phenylalanine: p<0.001.

ERK1 and ERK2 = assay: Western blot of p-ERK 1/2 in LB tumor cells; type: cell-based, mice; settings: added together with m-tyrosine, 250 μg/mL each, 3 minutes
Experimental: (§2) FIG. 8 illustrates the effect of meta-tyrosine on the expression of phosphorylated (p)-Erk 1/2 and p-STAT3 in LB tumor cells using Western blot: 3×10^5 LB tumor cells in 0.1 mL of medium were cultured in the presence of 0.1 mL of meta-tyrosine (m-Tyr; 250 μg/mL), phenylalanine (Phe, 250 μg/mL), meta-tyrosine (250 μg/mL)+phenylalanine (250 μg/mL), or saline for 3 minutes (to measure p-ERK 1/2) or for 8 hours (to measure p-STAT3). Positive control was obtained by treating LB cells with pervanadate. Controls with acting, total ERK 1/2, and total STAT3 were also added. FIG. 8A illustrates a representative experiment showing p-ERK 1/2 expression. FIG. 8B is a histogram showing the mean of 5 experiments; a, P<0.01 versus saline and versus meta-tyrosine+phenylalanine; P<0.02 versus phenylalanine. FIG. 8C illustrates a representative experiment showing p-STAT3 expression. […]
(§3) On this basis, we analyzed, first, the effect of m-tyrosine on ERK1 and ERK2 as 2 examples of protein kinases that are activated by the mitogen activated protein/extracellular signal-regulated kinase (MAP/ERK) signal transduction pathway that normally couples intracellular responses associated with cell proliferation, to the binding of growth factors to cell surface receptors (Kohno M, and Pouyssegur J. 2006. Targeting the ERK signaling pathway in cancer therapy. Ann Med; 38:200-211). […]

STAT3 = assay: Western blot of p-STAT3 in LB tumor cells; type: cell-based, mice; settings: added together with m-tyrosine, 250 μg/mL each, 8 hours
Experimental: as §2, §3

LB tumor cells [3] = assay: In vitro LB tumor cell proliferation ([3H]-thymidine uptake); type: cell-based, mice; settings: even with high concentrations
Experimental: as §1
Fractionation of serum from mice bearing a subcutaneous LB tumor (size≧2,000 mm^3) was carried out through several steps of purification (FIG. 1). Serum from normal mice was similarly fractioned as control. At all stages of the purification, the presence of the inhibitory factor was monitored by the [^3H]-thymidine uptake assay as a measure of LB tumor cell proliferation. First, serum was decomplemented and subjected to dialysis. The inhibitory factor was recovered only in the dialyzable fraction (MW<12,500 Da) and was then concentrated by lyophilization and applied successively to Sephadex G-25 and G-15 chromatographic columns, where activity was recovered at fractions corresponding to a molecular weight below 1,000 Da. These fractions were lyophilized and further purified with an HPLC column C18 in a gradient of acetonitrile in TFA (first HPLC). In 12 similar and independent experiments, growth inhibitory activity was systematically recovered in only 1 fraction eluted at near 20% acetonitrile (FIG. 2).
To test directly whether a “cocktail” of amino acids similar to that detected close to the “primary site” was more counteracting of the antitumor effects produced by m- and o-tyrosine than a “secondary site cocktail,” different concentrations of a mixture of m-tyrosine and o-tyrosine (ratio 1:1) were assayed on LB tumor cell proliferation, alone or together with a primary or a secondary site cocktail of amino acids.

[4] = serum of mice bearing s.c. LB tumor >2,000 mm^3, agent i.p. 48 and 24 hours before testing, titer = reciprocal of serum dilution producing 50% inhibition of [3H]thymidine uptake by LB cells

C[C@@H]1C[C@H]2[C@@H]3CCC4=CC(=O)C=C[C@]4(C)[C@@]3(F)[C@@H](O)C[C@]2(C)[C@@]1(O)C(=O)CO [Dexamethasone, dexamethasone]
GIU50/mL (X ± SE) ([1]; ip): 70 ± 18 GIU50/mL

CCCCc1nc(Cl)c(CO)n1Cc1ccc(-c2ccccc2-c2nn[nH]n2)cc1 [Losartant, losartan]
GIU50/mL (X ± SE) ([1]; ip): 300 ± 30 GIU50/mL
effect on serum inhibitory activity of LB tumor-bearing mice [1]: did not reduce

N[C@@H](CC(=O)O)C(=O)O [aspartic acid]
counteracting of the inhibitory effect produced by m- and o-tyrosine (LB tumor cells [2]): counteracted

N[C@@H](Cc1c[nH]cn1)C(=O)O [histidine]
counteracting of the inhibitory effect produced by m- and o-tyrosine (LB tumor cells [2]): only counteracted the inhibitory effect produced by m-tyrosine

NC(=O)CC[C@H](N)C(=O)O [glutamine]
counteracting of the inhibitory effect produced by m- and o-tyrosine (LB tumor cells [2]): counteracted

COC(=O)[C@@H](N)CCCNC(=N)N[N+](=O)[O-] [L-NAME]
GIU50/mL (X ± SE) [1, 4]: 266 ± 34 GIU50/mL
effect on serum inhibitory activity of LB tumor-bearing mice [1]: did not reduce

CC(Cc1ccc(O)c(O)c1)C(C)Cc1ccc(O)c(O)c1 (centres unmarked) [NDGA, nordihydroguaiaretic acid]
GIU50/mL (X ± SE) [1, 4]: 116 ± 14 GIU50/mL
effect on serum inhibitory activity of LB tumor-bearing mice [1]: significant reduction

N[C@@H](Cc1ccccc1)C(=O)O [phenylalanine, reference compound]
counteracting of the inhibitory effect produced by m- and o-tyrosine (LB tumor cells [2]): counteracted
expression of Ki-67 protein in tumor cells (LB tumor; control+m-tyrosine tumors or secondary implants treated with phenylalanine (FIG. 6B)): high expression
growth of secondary LB tumor implant otherwise inhibited by CR (LB tumor; periodically inoculated at the site of the secondary implant): grew similarly to controls
tumor volume of secondary tumor 20 days after the implant in the left flank (MC-C tumor): 680±152 mm^3
tumor volume of secondary tumor 20 days after the implant in the left flank (CEI tumor): 358±38 mm^3
effect on the m-tyrosine-induced reduction of ERK1/ERK2 activation (ERK1 and ERK2): reversed that effect
effect on the m-tyrosine-induced reduction of STAT3 activation (STAT3): reversed that effect

COc1ccc2c(c1)c(CC(=O)O)c(C)n2C(=O)c1ccc(Cl)cc1 [INDO, indomethacin]
GIU50/mL (X ± SE) ([1]; ip): 142 ± 16 GIU50/mL
effect on serum inhibitory activity of LB tumor-bearing mice [1]: significant reduction

CN(C)CCCN1c2ccccc2Sc2ccc(Cl)cc21 [Chlorpromazine, chlorpromazine]
GIU50/mL (X ± SE) ([1]; ip): 84 ± 19 GIU50/mL
effect on serum inhibitory activity of LB tumor-bearing mice [1]: significant reduction

Catalase
GIU50/mL (X ± SE) [1, 4]: 49 ± 5 GIU50/mL
effect on serum inhibitory activity of LB tumor-bearing mice [1]: significant reduction

N[C@@H](CCC(=O)O)C(=O)O [glutamic acid]
counteracting of the inhibitory effect produced by m- and o-tyrosine (LB tumor cells [2]): counteracted

CC(CN1c2ccccc2Sc2ccccc21)N(C)C (centres unmarked) [Promethazine, promethazine]
GIU50/mL (X ± SE) [1, 4]: 80 ± 9 GIU50/mL
effect on serum inhibitory activity of LB tumor-bearing mice [1]: significant reduction

Nc1ccn([C@@H]2O[C@H](CO)[C@@H](O)C2(F)F)c(=O)n1 [Gemcitabine, gemcitabine]
GIU50/mL (X ± SE) [1, 4]: 40 ± 6 GIU50/mL
effect on serum inhibitory activity of LB tumor-bearing mice [1]: significant reduction

N[C@@H](Cc1ccc(O)cc1)C(=O)O [tyrosine, 4-hydroxyphenylalanine]
effect on LB cells in vitro (LB tumor cells [3]): innocuous
counteracting of the inhibitory effect produced by m- and o-tyrosine (LB tumor cells [2]): did not reduce

O=C1CCN(c2ccccc2)N1 [Phenidone, phenidone]
GIU50/mL (X ± SE) [1, 4]: 103 ± 19 GIU50/mL
effect on serum inhibitory activity of LB tumor-bearing mice [1]: significant reduction
